From patent US20120315290A1, “INHIBITORS OF LL-37 MEDIATED IMMUNE REACTIVITY TO SELF NUCLEIC ACIDS” (BOARD OF REGENTS, THE UNIVERSITY OF TEXAS SYSTEM, priority 2006, published 2012)
“Also recorded” adds a separate entry of the source. Where no end group is shown, it is not given here.

Key:
[1] = tested on: plasmacytoid dendritic cells (pDC); assay: IFN-α and cytokine production by purified human pDC (ELISA of supernatants); type: cell-based; conditions: for pDC activation to produce IFN-α: substance alone added to purified pDC
Description: (§1) PDC from healthy donors were purified from freshly collected buffy coats. Briefly, PBMC were isolated by Ficoll-Hypaque density gradient centrifugation (GE Healthcare, Piscatway, N.J.) followed by positive sorting using anti-BDCA4-conjugated magnetic microbeads (Miltenyi Biotec, Auburn, Calif.). The recovered cells were stained with PE-Cy5-conjugated anti-CD4, APC-conjugated CD11c, and a cocktail of FITC-conjugated anti-CD3, anti-CD14, anti-CD16, anti-CD15, anti-CD20 and anti-CD56 (Lineage-FITC) (BD Pharmingen, San Diego, Calif.). The CD4+CD11c-Lin- (pDC precursors) were isolated by cell sorting. Purity was routinely >99%. PDC (5-10×10^4/well) were cultured in 96-well round-bottom plates in RPMI 1640 (GIBCO, Carlsbad, Calif.) supplemented with 10% FCS (Atlanta Biologicals, Lawrenceville, Ga.). Where indicated, pDC were stimulated with CpGA (1 μM), CpGB (1 μM), R837 (10 ug/ml), IRS (4 uM), non-CpG sequence (4 uM), and different concentrations of LL-37 and of human genomic DNA. To prepare LL-37.DNA complexes, CpGB, huDNA, non-CpG and LL-37 were mixed by inversion and incubated for 30 min at room temperature before being added to the cells.
(§2) Supernatants samples were taken after 18-24 h after addition of the stimuli. Human IFN-α was measured using a human IFN-α ELISA kit (PBL Biomedical Laboratories, New Brunswick, N.J.) according to the company's instructions. IL-6 and TNF-α were detected using a kit for human IL6 and TNF-α (R&D Systems), respectively.

[2] = tested on: LL-37-mediated activation of pDC; assay: Inhibition of LL-37-mediated IFN-α induction in pDC; type: cell-based, human; conditions: pDC stimulated with LL-37 (10 μM) in presence of the substance
Procedure: (§3) (A) pDC were stimulated with LL-37 (10 μM) in the presence of pertussis toxin (PTX) or KN62 to block the FPRL-1 and the P2X pathway respectively. Furthermore agonistic W peptide and ATP were used to stimulate these pathways on pDC. (B) pDC were stimulated with LL-37 (10 μM) in the presence of increasing concentrations of chloroquine to block the endosomal TLR pathway. (C) PDC were pre-treated DNase I, TLR-9 inhibitor (IRS, 4 μM) or ctrl ODN sequences for 30 min and followed by incubation with LL-37 (10 μM), CpG 2216 (CpGA, 1 μM) or imiquimod (R837,10 μg/ml) for 24 h (A). The culture supernatants were analyzed for IFN-α production by ELISA. One representative experiment of three is shown.
Heparin (an anionic sugar) was preincubated for ½ h with LL-37 before stimulating pDC (thus associating with self-DNA released by dying cells in culture) or before adding genomic human DNA and subsequently stimulating pDC.
as §1, §2

pDC [3] = assay: pDC viability; type: cell-based, human; conditions: not shown
proteinase 3 = target: T1, proteinase 3 (Homo sapiens, UniProt P24158); assay: Cleavage of LL-37 from propeptide hCAP18 in activated neutrophils (Western blot); type: cell-based; conditions: pretreatment of neutrophils, PMA activation
T1 construct: endogenous in cells
T1 sequence (P24158 28-248): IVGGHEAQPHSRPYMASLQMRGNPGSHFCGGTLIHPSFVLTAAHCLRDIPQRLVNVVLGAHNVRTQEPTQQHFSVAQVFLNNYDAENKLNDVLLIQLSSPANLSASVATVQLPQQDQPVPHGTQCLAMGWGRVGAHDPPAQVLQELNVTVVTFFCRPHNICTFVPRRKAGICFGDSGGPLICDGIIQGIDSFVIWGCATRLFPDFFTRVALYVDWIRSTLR

pDC [4] = assay: pDC stimulation by supernatant of activated neutrophils (type I IFN); type: cell-based, human; conditions: neutrophils pretreated with inhibitor
Description: (Left panel) IFN-α released by pDC stimulated with NET w/o Pr-3 inhibitors, CpG, w/o Pr-3 inhibitors is used as positive control.
These findings indicate that proteinase 3 inhibitors block the generation of the mature LL-37 peptide, thus inhibiting the LL-37-mediated break of innate tolerance to self-nucleic acids.

human genomic DNA = assay: Complex formation with DNA (ethidium bromide intercalation, size exclusion HPLC); type: binding
Description: (A) Emission spectra of human genomic DNA intercalated with Ethimidium bromide in the presence of increasing doses of LL-37. (B) Size exclusion HPLC of LL-37 alone, mut-LL-37 alone or DNA premixed with LL-37 or mut-37. […] Absorbance scales are different to accommodate the DNA peak.

TLR-9 = target: T2, TLR-9 (Homo sapiens, UniProt Q9NR96); assay: Inhibition of IFN-α induction in pDC by TLR-9 agonist CpG sequences; type: cell-based
T2 construct: PDC from healthy donors were purified from freshly collected buffy coats; endogenous in cells; host or cells: primary human pDC sorted from buffy coats of healthy donors
T2 sequence (Q9NR96 26-1032): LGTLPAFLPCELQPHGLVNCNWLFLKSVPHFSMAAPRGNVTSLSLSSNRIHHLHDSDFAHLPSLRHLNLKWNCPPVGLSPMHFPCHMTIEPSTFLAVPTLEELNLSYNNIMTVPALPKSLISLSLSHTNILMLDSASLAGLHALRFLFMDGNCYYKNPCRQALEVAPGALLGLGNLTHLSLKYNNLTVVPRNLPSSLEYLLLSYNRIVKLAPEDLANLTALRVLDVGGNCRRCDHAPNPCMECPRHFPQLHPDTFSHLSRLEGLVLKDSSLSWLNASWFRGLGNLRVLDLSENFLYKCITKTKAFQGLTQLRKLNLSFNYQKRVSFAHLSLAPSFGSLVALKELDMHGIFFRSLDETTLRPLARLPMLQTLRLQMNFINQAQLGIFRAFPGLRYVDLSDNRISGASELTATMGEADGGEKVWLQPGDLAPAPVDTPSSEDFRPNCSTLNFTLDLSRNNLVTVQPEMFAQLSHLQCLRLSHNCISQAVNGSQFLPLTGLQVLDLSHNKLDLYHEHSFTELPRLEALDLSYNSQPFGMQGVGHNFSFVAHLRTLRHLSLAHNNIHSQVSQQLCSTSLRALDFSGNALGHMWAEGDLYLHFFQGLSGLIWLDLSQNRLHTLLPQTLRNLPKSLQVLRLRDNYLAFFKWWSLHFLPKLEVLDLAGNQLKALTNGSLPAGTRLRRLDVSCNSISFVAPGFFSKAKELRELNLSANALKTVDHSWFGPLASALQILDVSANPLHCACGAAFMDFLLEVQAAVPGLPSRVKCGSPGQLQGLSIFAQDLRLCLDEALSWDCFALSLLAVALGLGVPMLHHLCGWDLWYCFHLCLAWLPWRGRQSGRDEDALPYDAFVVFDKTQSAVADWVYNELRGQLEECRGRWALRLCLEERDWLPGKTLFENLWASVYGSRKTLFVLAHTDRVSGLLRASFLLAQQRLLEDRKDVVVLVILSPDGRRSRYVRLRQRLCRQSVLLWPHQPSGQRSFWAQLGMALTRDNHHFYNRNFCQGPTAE
Procedure: as §3
(§4) PDC from healthy donors were purified from freshly collected buffy coats. Briefly, PBMC were isolated by Ficoll-Hypaque density gradient centrifugation (GE Healthcare, Piscatway, N.J.) followed by positive sorting using anti-BDCA4-conjugated magnetic microbeads (Miltenyi Biotec, Auburn, Calif.). […]
as §2

TLR7 = target: T3, TLR7 (Homo sapiens, UniProt Q9NYK1); assay: Inhibition of IFN-α induction in pDC by TLR7 agonist imiquimod; type: cell-based
T3 construct: PDC from healthy donors were purified from freshly collected buffy coats; endogenous in cells; host or cells: primary human pDC sorted from buffy coats of healthy donors
T3 sequence (Q9NYK1 27-1049): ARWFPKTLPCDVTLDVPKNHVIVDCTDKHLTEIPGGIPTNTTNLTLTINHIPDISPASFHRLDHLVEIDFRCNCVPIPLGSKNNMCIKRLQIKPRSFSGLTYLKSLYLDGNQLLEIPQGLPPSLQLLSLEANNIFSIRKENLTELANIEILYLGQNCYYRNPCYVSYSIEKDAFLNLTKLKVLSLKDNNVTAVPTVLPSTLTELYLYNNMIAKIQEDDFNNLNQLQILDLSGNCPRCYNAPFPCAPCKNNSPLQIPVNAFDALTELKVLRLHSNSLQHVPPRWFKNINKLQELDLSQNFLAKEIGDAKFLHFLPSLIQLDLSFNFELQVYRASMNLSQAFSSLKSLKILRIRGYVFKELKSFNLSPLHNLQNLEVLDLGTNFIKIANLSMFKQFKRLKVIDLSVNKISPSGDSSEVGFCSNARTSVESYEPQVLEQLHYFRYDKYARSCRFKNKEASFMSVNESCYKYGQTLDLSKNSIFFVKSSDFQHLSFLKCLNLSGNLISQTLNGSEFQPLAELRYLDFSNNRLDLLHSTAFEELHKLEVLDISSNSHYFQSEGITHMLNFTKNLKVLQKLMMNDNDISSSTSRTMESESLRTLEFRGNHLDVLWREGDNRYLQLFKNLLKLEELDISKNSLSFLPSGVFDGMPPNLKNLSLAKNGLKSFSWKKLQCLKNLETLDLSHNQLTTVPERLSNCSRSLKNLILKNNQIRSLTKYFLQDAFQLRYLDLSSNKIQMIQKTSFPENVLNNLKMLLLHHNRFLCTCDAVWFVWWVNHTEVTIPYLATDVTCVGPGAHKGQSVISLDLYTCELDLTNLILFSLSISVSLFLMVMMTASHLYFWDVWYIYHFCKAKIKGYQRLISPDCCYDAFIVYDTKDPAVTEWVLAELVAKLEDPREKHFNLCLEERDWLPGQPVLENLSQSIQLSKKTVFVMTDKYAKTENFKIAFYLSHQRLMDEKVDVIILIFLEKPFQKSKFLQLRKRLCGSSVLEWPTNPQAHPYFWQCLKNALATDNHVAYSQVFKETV
Procedure: as §3, §4, §2

Molecule: Nc1ncnc2c1ncn2[C@@H]1O[C@H](COP(=O)(O)OP(=O)(O)OP(=O)(O)O)[C@@H](O)[C@H]1O [ATP, Adenosin triphopshate]
- pDC activation to produce IFN-α [1]: did not result in IFN-α production by pDC

Molecule: CCN(CC)CCCC(C)Nc1ccnc2cc(Cl)ccc12 (stereo not drawn) [Chloroquine]
- Effect on IFN-α induction by LL-37 in pDC [2]: inhibited LL-37-mediated IFN-α induction in a dose-dependent manner
- Effect on pDC viability (pDC [3]): no measurable effect on pDC viability

Molecule: CC(C)C[C@H](NC(=O)[C@@H](NC(=O)N[C@@H](Cc1ccccc1)C(=O)O)[C@@H]1CCN=C(N)N1)C(=O)N[C@H](C=O)Cc1ccccc1 [Chymostatin]
- Cleavage of the 4 kD LL-37 peptide from hCAP18 (proteinase 3): can be blocked; also recorded: block the cleavage of LL-37 from its propeptide hCAP
- Capacity of activated neutrophils to stimulate pDC to produce type I IFNs (pDC [4]): abrogated; also recorded: inhibit the activation of pDC by self-DNA released by neutrophils

Molecule: CN([C@@H](Cc1ccc(OS(=O)(=O)c2cccc3cnccc23)cc1)C(=O)N1CCN(c2ccccc2)CC1)S(=O)(=O)c1cccc2cnccc12 [KN62, KN-62]
- Effect on IFN-α induction by LL-37 in pDC [2]: did not inhibit IFN-α induction by LL-37

Molecule: DNase I
- Effect on IFN-α induction by LL-37 in pDC [2]: significantly inhibited

Molecule: GGGGGACGATCGTCGGGGGG [CpGA]
- IFN-α induction by pDC, single stranded form complexed to LL-37 [1]: restored
- IFN-α induction by pDC, single stranded form (heat and flash cooling) ([1]; multimeric complex disrupted): strongly inhibited

Molecule: HBD-3: AMP cultured with pDC at equimolar doses (GIINTLQKYYCRVRGGRCAVLSCLPKEEQIGKCSTRGRKCCRRKK; ends and bridges not checked; cysteine pairing not given here; UniProt P81534 23-67, looked up)
- pDC activation to produce IFN-α [1]: did not induce pDC activation to produce IFN-α

Molecule: LLGDFFAVSKEKIGAEFVRIVQAIKDFLRNLVPRTES [mLL-37]
- pDC activation to produce IFN-α [1]: complete abrogation of pDC activation
- pDC activation to produce IFN-α ([1]; listed as mutated LL-37 peptide): did not induce IFN-α
- Complex formation with DNA (human genomic DNA): not able to complex with DNA

Molecule: MeOSuc-CMK
- Cleavage of the 4 kD LL-37 peptide from hCAP18 (proteinase 3): can be blocked; also recorded: block the cleavage of LL-37 from its propeptide hCAP
- Capacity of activated neutrophils to stimulate pDC to produce type I IFNs (pDC [4]): abrogated; also recorded: inhibit the activation of pDC by self-DNA released by neutrophils

Molecule: Pertussis Toxin [PTX]
- Effect on IFN-α induction by LL-37 in pDC [2]: did not inhibit IFN-α induction by LL-37

Molecule: TCGTCGTTTTGTCGTTTTGTCGTT [phophodiesteric CpG-B]
- IFN-α production by pDC stimulated with nucleic acid alone or combined with LL-37, as labelled [1]: unable to induce IFN-α

Molecule: TCGTCGTTTTGTCGTTTTGTCGTT [phosphothiorate CpG-B]
- IFN-α production by pDC stimulated with nucleic acid alone or combined with LL-37, as labelled [1]: induced significant levels of IFN-α

Molecule: TTTAGGGTTAGGGTTAGGGTTAGGG (listed as DNA, chemistry not given here) [IRS]
- Effect on IFN-α induction by LL-37 in pDC [2]: inhibited pDC activation to produce IFN-α
- Effect on IFN-α induction by TLR-9 agonist CpG sequences in pDC (TLR-9): block IFN-α induction by TLR-9 agonist CpG-sequences
- Effect on IFN-α induction by TLR7 agonist imiquimod in pDC (TLR7): not TLR7 agonist imiquimod

Molecule: WKYMV-peptide [W peptide]
- pDC activation to produce IFN-α [1]: did not result in IFN-α production by pDC

Molecule: heparin
- Effect on IFN-α induction by LL-37 in pDC [2]: completely abrogated; also recorded: inhibits the ability of LL-37 to induce IFN-α

B1: S100-7: AMP cultured with pDC at equimolar doses (protein, UniProt P31151 2-101, looked up)
Protein S100-A7: SNTQAERSIIGMIDMFHKYTRRDDKIEKPSLLTMMKENFPNFLSACDKKGTNYLADVFEKKDKNEDKKIDFSEFLSLLGDIATDYHKQSHGAAPCSGGSQ
- pDC activation to produce IFN-α [1]: did not induce pDC activation to produce IFN-α
